{"source": "ChEMBL document CHEMBL5723585", "about": "“Data for DCP probe JNJ-54082730” (2024)", "key": {"[1]": {"target": "C-X-C chemokine receptor type 2 (Homo sapiens) (UniProt P25025)", "sequence (P25025 whole entry)": "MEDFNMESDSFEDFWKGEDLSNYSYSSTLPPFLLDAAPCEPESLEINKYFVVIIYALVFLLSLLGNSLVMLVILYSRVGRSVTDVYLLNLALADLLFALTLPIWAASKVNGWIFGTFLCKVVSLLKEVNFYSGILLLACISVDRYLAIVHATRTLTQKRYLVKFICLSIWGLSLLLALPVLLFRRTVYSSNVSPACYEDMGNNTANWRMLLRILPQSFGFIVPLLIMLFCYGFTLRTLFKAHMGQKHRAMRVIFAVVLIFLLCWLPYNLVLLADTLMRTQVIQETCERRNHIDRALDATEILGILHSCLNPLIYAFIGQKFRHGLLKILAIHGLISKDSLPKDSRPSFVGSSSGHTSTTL", "test": "CXCR2 (IL-8B) Eurofins-Cerep binding assay", "settings": "filed as agonist, Compound concentration 10.0 uM"}, "[2]": {"target": "cGMP-dependent 3',5'-cyclic phosphodiesterase (Homo sapiens, UniProt O00408)", "sequence (O00408 whole entry)": "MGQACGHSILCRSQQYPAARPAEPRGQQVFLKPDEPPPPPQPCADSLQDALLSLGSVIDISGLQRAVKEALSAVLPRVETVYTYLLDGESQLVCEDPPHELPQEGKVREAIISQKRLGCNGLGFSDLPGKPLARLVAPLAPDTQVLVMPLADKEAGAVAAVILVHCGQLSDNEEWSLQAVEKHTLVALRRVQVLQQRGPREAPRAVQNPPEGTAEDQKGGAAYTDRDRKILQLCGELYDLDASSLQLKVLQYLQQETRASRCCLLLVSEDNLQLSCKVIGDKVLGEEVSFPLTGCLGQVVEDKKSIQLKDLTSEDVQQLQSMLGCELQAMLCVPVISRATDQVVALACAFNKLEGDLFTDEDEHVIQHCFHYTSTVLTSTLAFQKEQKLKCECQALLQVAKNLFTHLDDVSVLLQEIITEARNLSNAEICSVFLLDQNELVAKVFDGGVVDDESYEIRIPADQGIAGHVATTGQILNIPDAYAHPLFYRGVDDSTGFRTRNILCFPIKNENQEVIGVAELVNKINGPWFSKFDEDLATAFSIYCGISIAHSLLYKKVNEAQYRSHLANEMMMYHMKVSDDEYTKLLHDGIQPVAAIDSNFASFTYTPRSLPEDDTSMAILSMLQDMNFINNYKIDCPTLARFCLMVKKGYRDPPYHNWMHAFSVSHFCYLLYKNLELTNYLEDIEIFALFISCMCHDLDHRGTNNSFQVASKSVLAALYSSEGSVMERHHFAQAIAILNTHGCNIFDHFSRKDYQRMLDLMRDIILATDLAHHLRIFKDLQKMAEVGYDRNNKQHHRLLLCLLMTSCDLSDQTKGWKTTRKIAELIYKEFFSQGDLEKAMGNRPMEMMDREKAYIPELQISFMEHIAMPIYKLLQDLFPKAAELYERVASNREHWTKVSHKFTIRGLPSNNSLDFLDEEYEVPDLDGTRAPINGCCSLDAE", "test": "Scintillation proximity assay (PDE2A) ( Mean (95% Confidence Interval) = 0.8 -1 nM; Ki = 0.7 nM)"}, "[3]": {"target": "cGMP-dependent 3',5'-cyclic phosphodiesterase (Rattus norvegicus) (UniProt Q01062)", "test": "Target occupancy in striatum ( p.o.dose, 1 h)", "assay_type": "organism-based"}, "Rattus norvegicus [4]": {"species_on_record": "Rattus norvegicus", "test": "alpha 1 (non-selective) Eurofins-Cerep binding assay", "assay_type": "protein assay", "design": "ligand concentration 0.25 nM", "settings": "filed as antagonist, Compound concentration 10.0 uM"}, "Rattus norvegicus [5]": {"species_on_record": "Rattus norvegicus", "test": "alpha 2 (non-selective) Eurofins-Cerep binding assay", "assay_type": "protein assay", "design": "ligand concentration 1 nM", "settings": "filed as antagonist, Compound concentration 10.0 uM"}, "[6]": {"target": "B2 bradykinin receptor (Homo sapiens) (UniProt P30411)", "test": "B2 Eurofins-Cerep binding assay", "design": "ligand concentration 0.3 nM", "settings": "filed as agonist, Compound concentration 10.0 uM"}, "[7]": {"target": "D(2) dopamine receptor (Homo sapiens) (UniProt P14416)", "sequence (P14416 whole entry)": "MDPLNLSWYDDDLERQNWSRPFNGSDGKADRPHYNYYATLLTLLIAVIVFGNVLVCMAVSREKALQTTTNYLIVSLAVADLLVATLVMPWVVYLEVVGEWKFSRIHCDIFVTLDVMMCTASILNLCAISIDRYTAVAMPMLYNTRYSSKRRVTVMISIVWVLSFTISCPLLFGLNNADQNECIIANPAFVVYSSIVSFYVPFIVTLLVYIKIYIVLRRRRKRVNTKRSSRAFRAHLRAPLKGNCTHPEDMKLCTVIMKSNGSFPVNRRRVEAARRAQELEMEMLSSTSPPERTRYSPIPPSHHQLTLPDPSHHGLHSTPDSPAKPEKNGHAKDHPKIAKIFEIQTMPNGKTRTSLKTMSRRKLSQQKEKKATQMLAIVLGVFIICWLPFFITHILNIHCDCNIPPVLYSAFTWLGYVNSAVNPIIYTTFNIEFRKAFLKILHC", "test": "D2S (h) Eurofins-Cerep binding assay", "design": "ligand concentration 0.3 nM", "settings": "filed as antagonist, Compound concentration 10.0 uM"}, "[8]": {"target": "GABA-A receptor; anion channel (Rattus norvegicus) (UniProt O09028+P15431+P18506+P18508+P19969+P20236+P23574+P23576+P28471+P28473+P30191+P62813+P63079+P63138+Q91ZM7+Q9ES14)", "test": "GABA (non-selective) Eurofins-Cerep binding assay", "assay_type": "protein-complex assay", "design": "ligand concentration 10 nM", "settings": "filed as agonist, Compound concentration 10.0 uM"}, "[9]": {"target": "Galanin receptor type 2 (Homo sapiens) (UniProt O43603)", "sequence (O43603 whole entry)": "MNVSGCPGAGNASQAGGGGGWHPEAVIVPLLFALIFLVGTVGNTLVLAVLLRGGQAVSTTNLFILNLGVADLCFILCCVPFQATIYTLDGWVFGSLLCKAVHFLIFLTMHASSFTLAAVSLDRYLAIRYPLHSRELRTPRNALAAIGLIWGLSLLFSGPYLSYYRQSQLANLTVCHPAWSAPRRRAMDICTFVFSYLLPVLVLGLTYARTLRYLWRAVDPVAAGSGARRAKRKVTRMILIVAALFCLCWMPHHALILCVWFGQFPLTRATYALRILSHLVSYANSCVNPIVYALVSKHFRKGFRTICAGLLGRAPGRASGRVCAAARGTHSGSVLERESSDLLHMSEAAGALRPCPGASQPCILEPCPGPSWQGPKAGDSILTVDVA", "test": "GAL2 Eurofins-Cerep binding assay", "design": "ligand concentration 0.05 nM", "settings": "filed as agonist, Compound concentration 10.0 uM"}, "[10]": {"target": "C-C chemokine receptor type 1 (Homo sapiens) (UniProt P32246)", "test": "CCR1 Eurofins-Cerep binding assay", "design": "ligand concentration 0.01 nM", "settings": "filed as agonist, Compound concentration 10.0 uM"}, "[11]": {"target": "Substance-K receptor (Homo sapiens) (UniProt P21452)", "test": "NK2 Eurofins-Cerep binding assay", "design": "ligand concentration 0.1 nM", "settings": "filed as agonist, Compound concentration 10.0 uM"}, "[12]": {"target": "Neuromedin-K receptor (Homo sapiens) (UniProt P29371)", "sequence (P29371 whole entry)": "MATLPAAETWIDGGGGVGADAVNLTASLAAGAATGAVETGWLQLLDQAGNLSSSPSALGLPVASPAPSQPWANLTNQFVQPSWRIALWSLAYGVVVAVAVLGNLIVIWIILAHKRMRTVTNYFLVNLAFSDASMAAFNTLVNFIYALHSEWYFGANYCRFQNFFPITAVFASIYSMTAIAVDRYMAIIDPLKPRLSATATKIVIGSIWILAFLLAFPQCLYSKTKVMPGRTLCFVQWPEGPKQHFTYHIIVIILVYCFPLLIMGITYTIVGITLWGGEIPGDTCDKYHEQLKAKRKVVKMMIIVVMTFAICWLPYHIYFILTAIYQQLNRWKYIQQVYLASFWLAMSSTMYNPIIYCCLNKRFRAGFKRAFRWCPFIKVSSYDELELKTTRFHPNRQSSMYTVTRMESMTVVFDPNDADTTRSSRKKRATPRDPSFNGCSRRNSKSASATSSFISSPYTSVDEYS", "test": "NK3 Eurofins-Cerep binding assay", "design": "ligand concentration 0.4 nM", "settings": "filed as antagonist, Compound concentration 10.0 uM"}, "[13]": {"target": "Neurotensin receptor type 1 (Homo sapiens) (UniProt P30989)", "test": "NTS1 (NT1) Eurofins-Cerep binding assay", "design": "ligand concentration 0.05 nM", "settings": "filed as agonist, Compound concentration 10.0 uM"}, "[14]": {"target": "Nociceptin receptor (Homo sapiens) (UniProt P41146)", "test": "NOP (ORL1) Eurofins-Cerep binding assay", "design": "ligand concentration 0.06 nM", "settings": "filed as agonist, Compound concentration 10.0 uM"}, "[15]": {"target": "5-hydroxytryptamine receptor 2A (Homo sapiens) (UniProt P28223)", "test": "5-HT2A Eurofins-Cerep binding assay", "design": "ligand concentration 0.5 nM", "settings": "filed as antagonist, Compound concentration 10.0 uM"}, "[16]": {"target": "5-hydroxytryptamine receptor 5A (Homo sapiens) (UniProt P47898)", "sequence (P47898 whole entry)": "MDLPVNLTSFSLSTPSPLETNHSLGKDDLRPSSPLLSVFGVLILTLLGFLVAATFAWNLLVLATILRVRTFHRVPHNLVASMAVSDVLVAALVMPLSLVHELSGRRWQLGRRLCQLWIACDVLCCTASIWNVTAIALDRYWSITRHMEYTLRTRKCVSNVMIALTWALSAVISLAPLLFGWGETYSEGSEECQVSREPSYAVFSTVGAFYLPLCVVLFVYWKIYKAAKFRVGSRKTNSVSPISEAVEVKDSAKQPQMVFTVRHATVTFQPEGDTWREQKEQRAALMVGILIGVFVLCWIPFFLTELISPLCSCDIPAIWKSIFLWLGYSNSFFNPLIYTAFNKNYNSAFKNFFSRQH", "test": "5-HT5a Eurofins-Cerep binding assay", "design": "ligand concentration 1.5 nM", "settings": "filed as agonist, Compound concentration 10.0 uM"}, "[17]": {"target": "5-hydroxytryptamine receptor 6 (Homo sapiens) (UniProt P50406)", "sequence (P50406 whole entry)": "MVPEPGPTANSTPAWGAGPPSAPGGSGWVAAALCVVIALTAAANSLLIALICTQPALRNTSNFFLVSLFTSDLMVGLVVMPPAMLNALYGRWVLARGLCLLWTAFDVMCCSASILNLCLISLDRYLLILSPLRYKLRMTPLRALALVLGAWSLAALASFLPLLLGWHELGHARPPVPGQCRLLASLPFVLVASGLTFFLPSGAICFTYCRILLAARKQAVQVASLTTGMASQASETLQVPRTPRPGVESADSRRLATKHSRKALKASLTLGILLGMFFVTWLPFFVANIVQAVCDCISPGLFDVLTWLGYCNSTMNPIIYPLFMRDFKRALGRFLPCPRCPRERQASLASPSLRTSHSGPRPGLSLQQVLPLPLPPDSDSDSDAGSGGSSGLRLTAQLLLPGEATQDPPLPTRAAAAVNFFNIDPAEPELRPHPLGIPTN", "test": "5-HT6 Eurofins-Cerep binding assay", "design": "ligand concentration 2 nM", "settings": "filed as agonist, Compound concentration 10.0 uM"}, "Mus musculus": {"species_on_record": "Mus musculus", "test": "sst (non-selective) Eurofins-Cerep binding assay", "assay_type": "protein assay", "design": "ligand concentration 0.05 nM", "settings": "filed as agonist, Compound concentration 10.0 uM"}, "[18]": {"target": "Vasoactive intestinal polypeptide receptor 1 (Homo sapiens) (UniProt P32241)", "sequence (P32241 whole entry)": "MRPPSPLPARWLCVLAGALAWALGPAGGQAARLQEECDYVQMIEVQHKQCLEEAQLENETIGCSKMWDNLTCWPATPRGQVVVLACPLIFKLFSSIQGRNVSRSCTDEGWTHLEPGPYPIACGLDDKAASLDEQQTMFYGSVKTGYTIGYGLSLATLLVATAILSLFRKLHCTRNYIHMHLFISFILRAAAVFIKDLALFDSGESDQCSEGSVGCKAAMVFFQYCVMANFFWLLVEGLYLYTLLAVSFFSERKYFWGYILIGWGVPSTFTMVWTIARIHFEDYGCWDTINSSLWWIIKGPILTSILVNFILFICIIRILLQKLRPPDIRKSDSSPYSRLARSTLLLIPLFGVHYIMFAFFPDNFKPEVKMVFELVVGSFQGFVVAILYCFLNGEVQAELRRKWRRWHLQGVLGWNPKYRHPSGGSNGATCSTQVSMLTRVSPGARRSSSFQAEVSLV", "test": "VPAC1 (VIP1) Eurofins-Cerep binding assay", "design": "ligand concentration 0.04 nM", "settings": "filed as agonist, Compound concentration 10.0 uM"}, "Rattus norvegicus [19]": {"species_on_record": "Rattus norvegicus", "test": "Ca2+ channel (L,verapamil site) (phenylalkylamine) Eurofins-Cerep binding assay", "assay_type": "protein assay", "design": "ligand concentration 3 nM", "settings": "filed as antagonist, Compound concentration 10.0 uM"}, "Rattus norvegicus [20]": {"species_on_record": "Rattus norvegicus", "test": "SKCa channel Eurofins-Cerep binding assay", "assay_type": "protein assay", "design": "ligand concentration 0.007 nM", "settings": "filed as antagonist, Compound concentration 10.0 uM"}, "[21]": {"target": "cAMP and cAMP-inhibited cGMP 3',5'-cyclic phosphodiesterase 10A (Homo sapiens, UniProt Q9Y233)", "sequence (Q9Y233 whole entry)": "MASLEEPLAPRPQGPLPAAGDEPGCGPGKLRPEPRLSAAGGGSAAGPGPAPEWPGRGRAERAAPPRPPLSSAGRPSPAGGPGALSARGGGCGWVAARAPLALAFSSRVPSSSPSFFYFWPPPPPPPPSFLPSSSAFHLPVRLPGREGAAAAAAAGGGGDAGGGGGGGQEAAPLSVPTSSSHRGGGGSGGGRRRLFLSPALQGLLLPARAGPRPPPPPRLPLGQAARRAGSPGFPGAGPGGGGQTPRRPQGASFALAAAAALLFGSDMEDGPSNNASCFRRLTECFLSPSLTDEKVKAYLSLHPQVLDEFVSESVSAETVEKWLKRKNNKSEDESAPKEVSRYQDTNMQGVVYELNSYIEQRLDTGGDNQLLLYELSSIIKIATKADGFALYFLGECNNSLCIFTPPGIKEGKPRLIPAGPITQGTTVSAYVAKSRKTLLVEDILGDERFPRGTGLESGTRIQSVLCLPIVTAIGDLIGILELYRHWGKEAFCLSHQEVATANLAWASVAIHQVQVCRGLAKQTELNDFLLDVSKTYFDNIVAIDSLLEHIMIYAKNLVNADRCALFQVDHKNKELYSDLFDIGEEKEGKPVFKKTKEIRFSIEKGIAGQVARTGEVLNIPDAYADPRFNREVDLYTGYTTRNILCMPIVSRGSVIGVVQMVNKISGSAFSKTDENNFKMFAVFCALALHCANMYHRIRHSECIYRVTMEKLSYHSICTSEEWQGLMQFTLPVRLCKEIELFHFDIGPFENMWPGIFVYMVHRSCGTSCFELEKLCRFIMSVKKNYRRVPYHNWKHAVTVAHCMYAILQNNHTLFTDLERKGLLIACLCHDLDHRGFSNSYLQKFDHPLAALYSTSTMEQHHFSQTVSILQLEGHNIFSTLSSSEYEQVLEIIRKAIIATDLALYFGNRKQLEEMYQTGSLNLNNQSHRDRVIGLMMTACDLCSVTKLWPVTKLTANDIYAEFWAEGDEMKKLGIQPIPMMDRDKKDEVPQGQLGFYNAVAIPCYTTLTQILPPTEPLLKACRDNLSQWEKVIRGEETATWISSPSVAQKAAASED", "test": "IC50 of hPDE10A2 in the PDE screen at 1.0 µM"}, "Phosphodiesterase 3": {"target": "Phosphodiesterase 3 (Homo sapiens, UniProt Q14432+Q13370)", "test": "IC50 of hPDE3 in the PDE screen at 1.0 µM", "assay_type": "protein assay"}, "[22]": {"target": "Dual specificity calcium/calmodulin-dependent 3',5'-cyclic nucleotide phosphodiesterase 1B (Homo sapiens, UniProt Q01064)", "test": "IC50 of hPDE1B1 in the PDE screen at 1.0 µM"}, "[23]": {"target": "3',5'-cyclic-AMP phosphodiesterase 4D (Homo sapiens, UniProt Q08499)", "test": "IC50 of hPDE4D3 in the PDE screen at 1.0 µM"}, "[24]": {"target": "cGMP-specific 3',5'-cyclic phosphodiesterase (Homo sapiens, UniProt O76074)", "test": "IC50 of hPDE5A3 in the PDE screen at 1.0 µM"}, "[25]": {"test": "IC50 of bovine retina PDE6 in the PDE screen at 1.0 µM", "design": "species or system Bos taurus"}, "[26]": {"target": "High affinity 3',5'-cyclic-AMP phosphodiesterase 7A (Homo sapiens, UniProt Q13946)", "test": "IC50 of hPDE7A1 in the PDE screen at 1.0 µM"}, "[27]": {"target": "High affinity cAMP-specific and IBMX-insensitive 3',5'-cyclic phosphodiesterase 8A (Homo sapiens, UniProt O60658)", "test": "IC50 of hPDE8A1 in the PDE screen at 1.0 µM"}, "[28]": {"target": "High affinity cGMP-specific 3',5'-cyclic phosphodiesterase 9A (Homo sapiens, UniProt O76083)", "test": "IC50 of hPDE9A in the PDE screen at 1.0 µM"}}, "note": "The source made the active and inactive calls. No cut-off for these calls is given here.", "data": [{"smiles": "Cc1cc(C(=O)N2CC[C@@H](C)[C@H](c3cc(C(F)F)nc4ncnn34)C2)cc(C)n1", "values": [{"measurement": "residual activity", "setting": "[1]", "value": 109, "unit": "%"}, {"measurement": "IC50", "setting": "[2]", "value": "0.0009 µM (active)"}, {"measurement": "ED50", "setting": "[3]", "value": 5.3, "unit": "mg/kg"}, {"measurement": "residual activity", "setting": "Rattus norvegicus [4]", "value": 104, "unit": "%"}, {"measurement": "residual activity", "setting": "Rattus norvegicus [5]", "value": 104, "unit": "%"}, {"measurement": "residual activity", "setting": "[6]", "value": 103, "unit": "%"}, {"measurement": "residual activity", "setting": "[7]", "value": 104, "unit": "%"}, {"measurement": "residual activity", "setting": "[8]", "value": 100, "unit": "%"}, {"measurement": "residual activity", "setting": "[9]", "value": 94, "unit": "%"}, {"measurement": "residual activity", "setting": "[10]", "value": 89.6, "unit": "%"}, {"measurement": "residual activity", "setting": "[11]", "value": 102, "unit": "%"}, {"measurement": "residual activity", "setting": "[12]", "value": 99.8, "unit": "%"}, {"measurement": "residual activity", "setting": "[13]", "value": 111, "unit": "%"}, {"measurement": "residual activity", "setting": "[14]", "value": 103, "unit": "%"}, {"measurement": "residual activity", "setting": "[15]", "value": 108, "unit": "%"}, {"measurement": "residual activity", "setting": "[16]", "value": 95.3, "unit": "%"}, {"measurement": "residual activity", "setting": "[17]", "value": 100, "unit": "%"}, {"measurement": "residual activity", "setting": "Mus musculus", "value": 122, "unit": "%"}, {"measurement": "residual activity", "setting": "[18]", "value": 111, "unit": "%"}, {"measurement": "residual activity", "setting": "Rattus norvegicus [19]", "value": 96.6, "unit": "%"}, {"measurement": "residual activity", "setting": "Rattus norvegicus [20]", "value": 101, "unit": "%"}, {"measurement": "IC50", "setting": "[21]", "value": "0.099 µM (not active)"}, {"measurement": "Ki", "setting": "[21]", "value": 0.03, "unit": "µM"}, {"measurement": "IC50", "setting": "Phosphodiesterase 3", "value": 6.643, "unit": "µM"}, {"measurement": "Ki", "setting": "Phosphodiesterase 3", "value": 3.32, "unit": "µM"}, {"measurement": "IC50", "setting": "[22]", "value": "> 10 µM (not active)"}, {"measurement": "IC50", "setting": "[23]", "value": "> 10 µM (not active)"}, {"measurement": "IC50", "setting": "[24]", "value": "> 10 µM (not active)"}, {"measurement": "IC50", "setting": "[25]", "value": "> 10 µM (not active)"}, {"measurement": "IC50", "setting": "[26]", "value": "> 10 µM (not active)"}, {"measurement": "IC50", "setting": "[27]", "value": "> 10 µM (not active)"}, {"measurement": "IC50", "setting": "[28]", "value": "> 10 µM (not active)"}]}]}
